# Results taken from patent US8785470B2, “Heterocyclic compounds and uses thereof” (Infinity Pharmaceuticals, Inc., priority 2011, dated 2014).
# Like-named read-outs stand apart in the source and are kept apart here.
# Key:
# [1] = target: T1, PI3Kα (Homo sapiens, UniProt P42336); experiment: PI3-Kinase HTRF assay, PI3Kα; type: biochemical; conditions: bins Greater than 10 μM and Greater than 1 μM to 10 μM; 10 μM ATP, PIP2 at 10 μM; read-out: IC50 P13Kα
# T1 construct: purchased Millipore Corporation 14-602-K
# Text: A PI3-Kinase HTRF® assay kit (cat No. 33-016) purchased from Millipore Corporation was used to screen compounds provided herein. This assay used specific, high affinity binding of the GRPI pleckstrin homology (PH) domain to PIP3, the product of a Class 1A or 1B PI3 Kinase acting on its physiological substrate PIP2. During the detection phase of the assay, a complex was generated between the GST-tagged PH domain and biotinylated short chain PIP3. The biotinylated PIP3 and the GST-tagged PH domain recruited fluorophores (Streptavidin-Allophycocyanin and Europium-labeled anti-GST respectively) to form the fluorescence resonance energy transfer (FRET) architecture, generating a stable time-resolved FRET signal. The FRET complex was disrupted in a competitive manner by non-biotinylated PIP3, a product formed in the PI3 Kinase assay.
# PI3 Kinase α, β, γ and δ activity was assayed using the PI3 Kinase HTRF® assay kit (catalogue No. 33-016) purchased from Millipore Corporation. Purified recombinant PI3Kα (catalogue No. 14-602-K), PI3Kβ (catalogue No. 14-603-K), PI3Kγ (catalogue No. 14-558-K) and PI3Kδ (catalogue No. 14-604-K) were obtained from Millipore Corporation. Purified recombinant PI3K enzyme was used to catalyze the phosphorylation of phosphatidylinositol 4,5-bisphosphate (PIP2 at 10 μM) to phosphatidylinositol 3,4,5-trisphosphate (PIP3) in the presence of 10 μM ATP. The assay was carried out in 384-well format and detected using a Perkin Elmer EnVision Xcite Multilabel Reader. Emission ratios were converted into percent inhibitions and imported into GraphPad Prism software. The concentration necessary to achieve inhibition of enzyme activity by 50% (IC50) was calculated using concentrations ranging from 20 μM to 0.1 nM (12-point curve). IC50 values were determined using a nonlinear regression model available in GraphPad Prism 5. […]
# [2] = system: Balb/c splenic B cells; experiment: B cell activation and proliferation assay; type: cell-based; conditions: Mus musculus, read-out: B cell proliferation EC50
# Description: The ability of one or more subject compounds to inhibit B cell activation and proliferation is determined according to standard procedures known in the art. For example, an in vitro cellular proliferation assay is established that measures the metabolic activity of live cells. The assay is performed in a 96 well microtiter plate using Alamar Blue reduction. Balb/c splenic B cells are purified over a Ficoll-Paque™ PLUS gradient followed by magnetic cell separation using a MACS B cell Isolation Kit (Miletenyi). Cells are plated in 90 μl at 50.000 cells/well in B Cell Media (RPMI+10% FBS+Penn/Strep+50 μME5 mM HEPES). A compound provided herein is diluted in B Cell Media and added in a 10 μl volume. Plates are incubated for 30 min at 37° C. and 5% CO2 (0.2% DMSO final concentration). A 50 μl B cell stimulation cocktail is then added containing either 10 μg/ml LPS or 5 μg/ml F(ab′)2 Donkey anti-mouse IgM plus 2 ng/ml recombinant mouse IL4 in B Cell Media. Plates are incubated for 72 hours at 37° C. and 5% CO2. A volume of 15 μL of Alamar Blue reagent is added to each well and plates are incubated for 5 hours at 37° C. and 5% CO2. Alamar Blue fluoresce is read at 560Ex/590Em, and IC50 or EC50 values are calculated using GraphPad Prism 5.
# [3] = column bins 1 μM to 100 nM (given as 100-1000) and Less than 100 nM
# T1 sequence (P42336 whole entry): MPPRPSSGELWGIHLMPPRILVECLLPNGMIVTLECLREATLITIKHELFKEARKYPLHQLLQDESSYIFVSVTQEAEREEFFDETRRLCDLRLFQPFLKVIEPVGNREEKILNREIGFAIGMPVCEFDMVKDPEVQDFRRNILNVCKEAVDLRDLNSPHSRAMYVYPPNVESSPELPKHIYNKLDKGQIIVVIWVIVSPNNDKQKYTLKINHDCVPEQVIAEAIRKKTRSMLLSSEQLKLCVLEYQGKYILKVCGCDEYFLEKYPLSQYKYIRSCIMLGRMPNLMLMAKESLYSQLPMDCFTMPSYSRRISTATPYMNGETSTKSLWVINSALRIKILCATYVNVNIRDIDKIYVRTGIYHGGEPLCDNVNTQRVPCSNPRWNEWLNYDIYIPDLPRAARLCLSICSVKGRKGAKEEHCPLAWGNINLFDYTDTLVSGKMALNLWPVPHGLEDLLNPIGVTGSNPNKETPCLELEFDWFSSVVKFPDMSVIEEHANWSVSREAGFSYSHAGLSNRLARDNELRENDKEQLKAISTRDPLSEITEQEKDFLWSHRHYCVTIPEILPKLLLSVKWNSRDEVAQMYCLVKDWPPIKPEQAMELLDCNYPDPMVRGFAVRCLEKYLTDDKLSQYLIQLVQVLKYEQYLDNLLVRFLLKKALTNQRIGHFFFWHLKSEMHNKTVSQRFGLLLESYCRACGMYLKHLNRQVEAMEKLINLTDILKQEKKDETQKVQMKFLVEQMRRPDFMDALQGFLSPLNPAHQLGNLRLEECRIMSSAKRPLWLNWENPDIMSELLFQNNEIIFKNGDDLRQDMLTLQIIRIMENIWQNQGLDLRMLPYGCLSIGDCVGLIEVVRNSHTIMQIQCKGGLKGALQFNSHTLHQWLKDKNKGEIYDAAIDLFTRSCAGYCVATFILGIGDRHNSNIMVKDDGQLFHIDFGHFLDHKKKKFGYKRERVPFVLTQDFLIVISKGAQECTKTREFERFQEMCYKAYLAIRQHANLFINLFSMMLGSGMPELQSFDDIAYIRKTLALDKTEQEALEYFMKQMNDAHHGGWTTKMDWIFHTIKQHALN
# T1 sequence (P27986 whole entry partner): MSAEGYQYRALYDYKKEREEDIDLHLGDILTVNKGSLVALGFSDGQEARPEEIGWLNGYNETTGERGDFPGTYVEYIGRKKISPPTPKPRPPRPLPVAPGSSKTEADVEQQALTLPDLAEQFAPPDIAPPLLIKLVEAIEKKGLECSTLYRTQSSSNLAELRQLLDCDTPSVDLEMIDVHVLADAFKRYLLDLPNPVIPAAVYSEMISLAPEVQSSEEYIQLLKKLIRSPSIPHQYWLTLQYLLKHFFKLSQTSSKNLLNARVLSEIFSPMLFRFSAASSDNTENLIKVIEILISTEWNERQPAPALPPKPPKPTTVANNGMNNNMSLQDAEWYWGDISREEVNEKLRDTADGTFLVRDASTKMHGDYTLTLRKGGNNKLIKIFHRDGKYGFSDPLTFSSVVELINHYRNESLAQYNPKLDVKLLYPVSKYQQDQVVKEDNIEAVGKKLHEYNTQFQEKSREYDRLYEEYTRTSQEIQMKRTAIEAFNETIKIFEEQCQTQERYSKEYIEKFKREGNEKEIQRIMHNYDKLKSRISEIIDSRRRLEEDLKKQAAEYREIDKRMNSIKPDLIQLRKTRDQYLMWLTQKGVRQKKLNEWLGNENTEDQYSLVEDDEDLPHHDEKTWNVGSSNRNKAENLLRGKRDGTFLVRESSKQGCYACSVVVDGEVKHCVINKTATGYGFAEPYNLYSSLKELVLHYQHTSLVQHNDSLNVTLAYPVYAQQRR
IC50 [1] [µM],SMILES,"EC50 [2, 3] [µM]",EC50 [2] [µM]
1 to 10,C[C@H](Nc1nc(N)ncc1-c1cncs1)c1cc2cccc(Cl)c2c(=O)n1-c1ccccc1 [Compound 361],< 0.1,
1 to 10,Cc1cccc2cc([C@H](C)Nc3nc(N)ncc3C#N)n(-c3cccc(F)c3)c(=O)c12 [Compound 15],< 0.1,
,C[C@H](Nc1nc(N)ncc1C#N)c1cc2cccc(-c3ccnc(O)c3)c2c(=O)n1-c1ccccc1 [Compound 130],< 0.1,
,C[C@H](Nc1nc(N)ncc1C#N)c1cc2cccc(-c3cnc4[nH]ccc4c3)c2c(=O)n1-c1ccccc1 [Compound 47],< 0.1,
1 to 10,C[C@H](Nc1nc(N)ncc1C#N)c1cc2cccc(Cl)c2c(=O)n1-c1ccc(Cl)cc1 [Compound 217],< 0.1,
1 to 10,C[C@H](Nc1nc(N)ncc1C#N)c1cc2cccc(Cl)c2c(=O)n1-c1cccc(F)c1 [Compound 18],< 0.1,
1 to 10,COc1cc(-c2cccc3cc([C@H](C)Nc4nc(N)ncc4[N+](=O)[O-])n(-c4ccccc4)c(=O)c23)ccn1 [Compound 177],< 0.1,
,C[C@H](Nc1nc(N)ncc1C#N)c1cc2cccc(Oc3ccccc3)c2c(=O)n1-c1ccccc1 [Compound 151],< 0.1,
1 to 10,Cc1csc(-c2cnc(N)nc2N[C@@H](C)c2cc3cccc(Cl)c3c(=O)n2-c2ccccc2)n1 [Compound 136],< 0.1,
,COc1cc(-c2cccc3cc([C@@H](C)Nc4nc(N)ncc4C#N)n(-c4ccccc4)c(=O)c23)ccn1 [Compound 380],< 0.1,
,"Cc1nc(N)nc(N[C@@H](C)c2cc3cccc(Cl)c3c(=O)n2-c2ccccc2)c1C#N [Compound 89, (S)-2-amino-4-(1-(8-chloro-1-oxo-2-phenyl-1,2-dihydroisoquinolin-3-yl)ethylamino)-6-methylpyrimidine-5-carbonitrile]",< 0.1,
,COc1ncc(-c2cccc3cc([C@H](C)Nc4nc(N)ncc4C(F)(F)F)n(-c4cccc(F)c4)c(=O)c23)cn1 [Compound 31],< 0.1,
1 to 10,C[C@H](Nc1nc(N)ncc1C(=O)N(C)C)c1cc2cccc(-c3cnn(C)c3)c2c(=O)n1-c1ccccc1 [Compound 203],< 0.1,
1 to 10,C[C@H](Nc1nc(N)ncc1-c1cscn1)c1cc2cccc(Cl)c2c(=O)n1-c1ccccc1 [Compound 360],< 0.1,
,COc1nc(-c2cnc(N)nc2N[C@@H](C)c2cc3cccc(Cl)c3c(=O)n2-c2ccccc2)cs1 [Compound 223],,< 0.1
1 to 10,CNc1cc(-c2cccc3cc([C@H](C)Nc4nc(N)ncc4C#N)n(-c4ccccc4)c(=O)c23)ccn1 [Compound 185],< 0.1,
1 to 10,COc1cncc(-c2cccc3nc([C@H](C)Nc4nc(N)ncc4C#N)n(-c4ccccc4)c(=O)c23)c1 [Compound 65],,
,COc1cc(-c2cccc3cc([C@H](C)Nc4nc(N)ncc4-c4ccc(O)c(F)c4)n(-c4ccccc4)c(=O)c23)ccn1 [Compound 159],< 0.1,
1 to 10,C[C@H](Nc1nc(N)ncc1C#N)c1cc2cccc(-c3cccc(F)c3)c2c(=O)n1-c1ccccc1 [Compound 33],,
1 to 10,COc1cc(-c2cccc3cc([C@H](C)Nc4nc(N)ncc4-c4cccnc4)n(-c4ccccc4)c(=O)c23)ccn1 [Compound 133],,
1 to 10,C[C@H](Nc1nc(N)ncc1C#N)c1cc2cccc(-c3cncc(OC(F)F)c3)c2c(=O)n1-c1ccccc1 [Compound 152],< 0.1,
1 to 10,C[C@H](Nc1nc(N)ncc1C#N)c1cc2cccc(Cl)c2c(=O)n1-c1cc(F)ccc1F [Compound 264],,
1 to 10,CCn1c([C@H](C)Nc2nc(N)ncc2C#N)cc2cccc(Cl)c2c1=O [Compound 309],< 0.1,
1 to 10,C[C@H](Nc1nc(N)ncc1C#N)c1cc2cccc(Cl)c2c(=O)n1-c1ccccc1F [Compound 267],,

IC50 [1] [µM],SMILES,"EC50 [2, 3] [µM]",EC50 [2] [µM]
,C[C@H](Nc1nc(N)ncc1C#N)c1cc2cccc(-c3cncc(N(C)C)c3)c2c(=O)n1-c1ccccc1 [Compound 96],< 0.1,
,COc1cncc(-c2cccc3cc([C@H](C)Nc4nc(N)ncc4C#N)n(C4CC4)c(=O)c23)c1 [Compound 106],< 0.1,
,C[C@H](Nc1nc(N)ncc1C#N)c1cc2cccc(-c3cnc4ccccc4c3)c2c(=O)n1-c1ccccc1 [Compound 50],< 0.1,
,"Cc1ncc(-c2cccc3nc([C@H](C)Nc4nc(N)ncc4C#N)n(-c4ccccc4)c(=O)c23)cn1 [Compound 63, (S)-2-amino-4-((1-(5-(2-methylpyrimidin-5-yl)-4-oxo-3-phenyl-3,4-dihydroquinazolin-2-yl)ethyl)amino)pyrimidine-5-carbonitrile]",< 0.1,
,"COc1cncc(-c2cccc3cc([C@H](C)Nc4nc(N)ncc4C#N)n(-c4ccccc4)c(=O)c23)c1 [Compound 9, (S)-2-amino-4-((1-(8-(5-methoxypyridin-3-yl)-1-oxo-2-phenyl-1,2-dihydroisoquinolin-3-yl)ethyl)amino)pyrimidine-5-carbonitrile]",< 0.1,
,COc1ncc(-c2cccc3cc([C@H](C)Nc4nc(N)ncc4C#N)n(-c4cccc(F)c4)c(=O)c23)cn1 [Compound 22],< 0.1,
,C[C@H](Nc1ncnc(N)c1[N+](=O)[O-])c1cc2cccc(Cl)c2c(=O)n1-c1ccccc1 [Compound 129],< 0.1,
,"Cc1cc(N[C@@H](C)c2cc3cccc(Cl)c3c(=O)n2-c2ccccc2)nc(N)n1 [Compound 92, (S)-3-(1-((2-amino-6-methylpyrimidin-4-yl)amino)ethyl)-8-chloro-2-phenylisoquinolin-1(2H)-one]",0.1 to 1,
,COc1cc(-c2cccc3cc([C@H](C)Nc4nc(N)ncc4C(=O)N4CC(F)(F)C4)n(-c4ccccc4)c(=O)c23)ccn1 [Compound 432],0.1 to 1,
,C[C@H](Nc1nc(N)ncc1C(=O)N1CCC1)c1cc2cccc(-c3cnn(C)c3)c2c(=O)n1-c1ccccc1 [Compound 204],,1 to 10
,C[C@H](Nc1nc(N)ncc1C#N)c1cc2cccc(Cl)c2c(=O)n1C1CCCC1 [Compound 297],< 0.1,
1 to 10,C[C@H](Nc1nc(N)ncc1C#N)c1cc2cccc(Cl)c2c(=O)n1-c1ccc(F)cc1F [Compound 255],,
,COc1cc(-c2cccc3cc([C@H](C)Nc4nc(N)ncc4C#N)n(C4CC4)c(=O)c23)ccn1 [Compound 107],< 0.1,
,COc1cc(-c2cccc3cc([C@H](C)Nc4nc(N)ncc4C(=O)N(C)C)n(-c4ccccc4)c(=O)c23)ccn1 [Compound 112],< 0.1,
,Cc1ncc(-c2cnc(N)nc2N[C@@H](C)c2cc3cccc(Cl)c3c(=O)n2-c2ccccc2)s1 [Compound 372],< 0.1,
,COc1ncc(-c2cccc3cc([C@H](C)Nc4nc(N)ncc4C(F)(F)F)n(-c4ccccc4)c(=O)c23)cn1 [Compound 12],< 0.1,
,COc1cc(-c2cccc3cc([C@H](C)Nc4nc(N)ncc4-c4cc(O)cc(F)c4)n(-c4ccccc4)c(=O)c23)ccn1 [Compound 161],0.1 to 1,
,C[C@H](Nc1cc(N)ncc1C(N)=O)c1cc2cccc(Cl)c2c(=O)n1-c1ccccc1 [Compound 431],< 0.1,
,C[C@H](Nc1nc(N)ncc1C#N)c1cc2cccc(Cl)c2c(=O)n1-c1cccnc1 [Compound 306],< 0.1,
,C[C@H](Nc1nc(N)ncc1C#N)c1cc2cccc(-c3cnc4[nH]ccc4c3)c2c(=O)n1-c1cccc(F)c1 [Compound 25],< 0.1,
,"Nc1nccc(Cl)n1 [Compound 79, 2-amino-4-chloro-pyrimidine]",< 0.1,
,C[C@H](Nc1nc(N)ncc1C#N)c1cc2cccc(C#CCCC(=O)N3CCOCC3)c2c(=O)n1-c1ccccc1 [Compound 193],< 0.1,
,COc1cc(-c2cccc3cc([C@H](C)Nc4nc(N)ncc4-c4ccc(F)c(O)c4)n(-c4ccccc4)c(=O)c23)ccn1 [Compound 163],0.1 to 1,
